Source: ChEMBL document CHEMBL5579824, “Novel Hsp90-Targeting PROTACs: Enhanced synergy with cisplatin in combination therapy of cervical cancer” (Eur J Med Chem, 2024)
Calls of active or inactive are those of the source. The rule behind the calls is not given here.

Legend:
SiHa [1] = assay: Synergistic antitumor activity against human SiHa cells xenografted in BALB/c nude mouse assessed as tumor growth inhibition at 2 mg/kg, ip co-treated with cisplatin separately for every two days; format: functional, organism-based
SiHa [2] = assay: Synergistic antiproliferative activity against human SiHa cells assessed as combination index at 1 uM incubated for 72 hrs in presence of 3.16 uM cisplatin by CCK-8 assay; format: functional
[3] = Toxicity in BALB/c nude mouse xenografted with human SiHa cells assessed as body weight weight loss at 2 mg/kg, ip co-treated with cisplatin separately for every two days; format: organism-based; conditions: in vivo
C-33-A = assay: Antiproliferative activity against human C-33-A cells assessed as reduction in cell viability incubated for 72 hrs by CCK-8 assay; format: functional, cell-based
SiHa [4] = assay: Synergistic antiproliferative activity against human SiHa cells assessed as combination index at 0.1 uM incubated for 72 hrs in presence of 31.62 uM cisplatin by CCK-8 assay; format: functional
[5] = biological target: T1, Protein cereblon/Heat shock protein HSP 90-alpha/Heat shock protein HSP 90-beta (Homo sapiens) (UniProt P07900+P08238+Q96SW2); assay: Protac activity at CRBN/Hsp90 in human SiHa cells assessed as induction of Hsp90 degradation at 0.05 uM incubated for 10 hrs by Western blot analysis; format: cell-based
SiHa [6] = assay: Synergistic antiproliferative activity against human SiHa cells assessed as combination index at 5 uM incubated for 72 hrs in presence of 31.62 uM cisplatin by CCK-8 assay; format: functional
SiHa [7] = assay: Synergistic antiproliferative activity against human SiHa cells assessed as combination index at 0.5 uM incubated for 72 hrs in presence of 0.32 uM cisplatin by CCK-8 assay; format: functional
SiHa [8] = assay: Synergistic antiproliferative activity against human SiHa cells assessed as combination index at 10 uM incubated for 72 hrs in presence of 0.1 uM cisplatin by CCK-8 assay; format: functional
SiHa [9] = assay: Synergistic antiproliferative activity against human SiHa cells assessed as combination index at 5 uM incubated for 72 hrs in presence of 0.32 uM cisplatin by CCK-8 assay; format: functional
SiHa [10] = assay: Induction of cell cycle arrest in human SiHa cells assessed as accumulation of cells at S pahse at 0.05 uM incubated after 48 hrs by PI staining based flow cytometry (reference value: 8.51 %); format: functional
SiHa [11] = assay: Synergistic antiproliferative activity against human SiHa cells assessed as combination index at 0.05 uM incubated for 72 hrs in presence of 0.03 uM cisplatin by CCK-8 assay; format: functional
SiHa [12] = assay: Synergistic antiproliferative activity against human SiHa cells assessed as combination index at 1 uM incubated for 72 hrs in presence of 1 uM cisplatin by CCK-8 assay; format: functional
SiHa [13] = assay: Induction of apoptosis in human SiHa cells assessed as late apoptotic cells at 10 uM incubated after 48 hrs by annexin V-FITC/PI staining based flow cytometry (reference value: 6.93 %); format: functional
SiHa [14] = assay: Synergistic antiproliferative activity against human SiHa cells assessed as combination index at 0.5 uM incubated for 72 hrs in presence of 0.01 uM cisplatin by CCK-8 assay; format: functional
SiHa [15] = assay: Synergistic antiproliferative activity against human SiHa cells assessed as combination index at 0.1 uM incubated for 72 hrs in presence of 1 uM cisplatin by CCK-8 assay; format: functional
SiHa [16] = assay: Synergistic antiproliferative activity against human SiHa cells assessed as combination index at 0.1 uM incubated for 72 hrs in presence of 3.16 uM cisplatin by CCK-8 assay; format: functional
[17] = biological target: T1, Protein cereblon/Heat shock protein HSP 90-alpha/Heat shock protein HSP 90-beta (Homo sapiens); assay: Protac activity at CRBN/Hsp90 in human SiHa cells assessed as induction of Hsp90 degradation at 0.05 uM incubated for 2 hrs in presence of MG-132 by Western blot analysis; format: cell-based
SiHa [18] = assay: Induction of cell cycle arrest in human SiHa cells assessed as accumulation of cells at G1 pahse at 1 uM incubated after 48 hrs by PI staining based flow cytometry (reference value: 83.90 %); format: functional
SiHa [19] = assay: Synergistic antiproliferative activity against human SiHa cells assessed as combination index at 0.75 uM incubated for 72 hrs in presence of 10 uM cisplatin by CCK-8 assay; format: functional
SiHa [20] = assay: Synergistic antiproliferative activity against human SiHa cells assessed as combination index at 0.75 uM incubated for 72 hrs in presence of 3.16 uM cisplatin by CCK-8 assay; format: functional
[21] = Toxicity in BALB/c nude mouse xenografted with human SiHa cells assessed as body weight weight loss at 2 mg/kg, ip; format: organism-based; conditions: in vivo
[22] = biological target: T1, Protein cereblon/Heat shock protein HSP 90-alpha/Heat shock protein HSP 90-beta (Homo sapiens); assay: Protac activity at CRBN/Hsp90 in human SiHa cells assessed as induction of Hsp90 degradation at 0.05 uM incubated for 2 hrs in presence of bortezomib by Western blot analysis; format: cell-based
[23] = biological target: T1, Protein cereblon/Heat shock protein HSP 90-alpha/Heat shock protein HSP 90-beta (Homo sapiens); assay: Protac activity at CRBN/Hsp90 in human SiHa cells assessed as induction of Hsp90 degradation at 0.05 uM incubated for 2 hrs in presence of lenalidomide by Western blot analysis; format: cell-based
SiHa [24] = assay: Synergistic antiproliferative activity against human SiHa cells assessed as combination index at 1 uM incubated for 72 hrs in presence of 0.03 uM cisplatin by CCK-8 assay; format: functional
SiHa [25] = assay: Synergistic antiproliferative activity against human SiHa cells assessed as combination index at 10 uM incubated for 72 hrs in presence of 1 uM cisplatin by CCK-8 assay; format: functional
SiHa [26] = assay: Synergistic antiproliferative activity against human SiHa cells assessed as combination index at 5 uM incubated for 72 hrs in presence of 10 uM cisplatin by CCK-8 assay; format: functional
SiHa [27] = assay: Induction of apoptosis in human SiHa cells assessed as early apoptotic cells at 2.5 uM incubated after 48 hrs by annexin V-FITC/PI staining based flow cytometry (reference value: 2.05 %); format: functional
SiHa [28] = assay: Synergistic antiproliferative activity against human SiHa cells assessed as combination index at 1 uM incubated for 72 hrs in presence of 0.32 uM cisplatin by CCK-8 assay; format: functional
SiHa [29] = assay: Synergistic antiproliferative activity against human SiHa cells assessed as combination index at 0.1 uM incubated for 72 hrs in presence of 0.1 uM cisplatin by CCK-8 assay; format: functional
SiHa [30] = assay: Synergistic antiproliferative activity against human SiHa cells assessed as combination index at 0.75 uM incubated for 72 hrs in presence of 0.1 uM cisplatin by CCK-8 assay; format: functional
[31] = biological target: Serine/threonine-protein kinase mTOR (Homo sapiens) (UniProt P42345); assay: Inhibition of mTOR phosphorylation in human SiHa cells incubated for 10 hrs by Western blot analysis; format: cell-based; conditions: dose 0.01-1 µM
SiHa [32] = assay: Synergistic antiproliferative activity against human SiHa cells assessed as combination index at 5 uM incubated for 72 hrs in presence of 3.16 uM cisplatin by CCK-8 assay; format: functional
SiHa [33] = assay: Synergistic antiproliferative activity against human SiHa cells assessed as combination index at 0.5 uM incubated for 72 hrs in presence of 0.1 uM cisplatin by CCK-8 assay; format: functional
SiHa [34] = assay: Synergistic antiproliferative activity against human SiHa cells assessed as combination index at 5 uM incubated for 72 hrs in presence of 1 uM cisplatin by CCK-8 assay; format: functional

- Activity [5]: Active
- Activity [17]: inactive
- Activity [22]: inactive
- Activity [23]: inactive
- inhibition [31]: Active
SMILES: CC1(C)CC(=O)c2c(C(F)(F)F)nn(-c3ccc(C(N)=O)c(N[C@H]4CC[C@H](OC(=O)CNC(=O)CCCCCCCNc5cccc6c5CN(C5CCC(=O)NC5=O)C6=O)CC4)c3)c2C1 (stereo not given in full)
- TGI (SiHa [1]): Active
- CI (SiHa [2]): 0.18
- Activity [3]: Non-Toxic
- IC50 (C-33-A): 70 nM
- CI (SiHa [4]): 0.24
- CI (SiHa [6]): 0.53
- CI (SiHa [7]): 0.12
- CI (SiHa [8]): 2.06
- CI (SiHa [9]): 0.95
- Activity (SiHa [10]): 10.84%
- CI (SiHa [11]): 0.3
- CI (SiHa [12]): 0.18
- Activity (SiHa [13]): 29.96%
- CI (SiHa [14]): 0.18
- CI (SiHa [15]): 0.8
- CI (SiHa [16]): 1.04
- Activity (SiHa [18]): 59.32%
- CI (SiHa [19]): 0.21
- CI (SiHa [20]): 0.17
- Activity [21]: Non-Toxic
- CI (SiHa [24]): 0.22
- CI (SiHa [25]): 1.78
- CI (SiHa [26]): 0.51
- Activity (SiHa [27]): 21.35%
- CI (SiHa [28]): 0.2
- CI (SiHa [29]): 0.49
- CI (SiHa [30]): 0.18
- CI (SiHa [32]): 0.65
- CI (SiHa [33]): 0.13
- CI (SiHa [34]): 0.84
